Assay results reported in PubChem BioAssay AID328 (DTP/NCI, 2004).
Several values for one entry are separate records, joined by “and”; a condition that tells them apart may be missing. Equal entries are not always repeated. Inconclusive results and toxic doses are left out.

Tested on: BDF1 mice, P388 leukemia ip, median survival T/C
Assay: NCI In Vivo Anticancer Drug Screen. Data for tumor model P388 Leukemia (intraperitoneal) in B6D2F1 (BDF1) mice
Conditions: endpoint: median survival time, higher = longer survival
Procedure, shortened: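 Steps: implant the tumour, treat one group with compound and another with vehicle, record survival, then divide treated by control.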

[1] = dose: 37.5 mg/kg/injection, schedule: Q01DX009 (ip), vehicle: saline with Tween-80
[2] = dose: 50.0 mg/kg/injection, schedule: Q01DX009 (ip), vehicle: saline
[3] = dose: 100.0 mg/kg/injection, schedule: Q01DX009 (ip), vehicle: saline
[4] = dose: 100.0 mg/kg/injection, schedule: Q04DX003 (ip), vehicle: saline sonified
[5] = dose: 200.0 mg/kg/injection, schedule: Q04DX003 (ip), vehicle: saline sonified
[6] = dose: 50.0 mg/kg/injection, schedule: Q01DX009 (ip), vehicle: saline with Tween-80
[7] = dose: 100.0 mg/kg/injection, schedule: Q01DX009 (ip), vehicle: saline with Tween-80
[8] = dose: 200.0 mg/kg/injection, schedule: Q01DX009 (ip), vehicle: saline with Tween-80
[9] = dose: 100.0 mg/kg/injection, schedule: Q04DX003 (ip), vehicle: Klucel (hydroxypropylcellulose) (HPC)
[10] = dose: 400.0 mg/kg/injection, schedule: Q01DX009 (ip), vehicle: saline with Tween-80
[11] = dose: 100.0 mg/kg/injection, schedule: Q04DX003 (ip), vehicle: saline
[12] = dose: 200.0 mg/kg/injection, schedule: Q04DX003 (ip), vehicle: saline
[13] = dose: 400.0 mg/kg/injection, schedule: Q04DX003 (ip), vehicle: saline

SMILES: COC(=O)/C=C/CCBr
- T/C (dose: 100.0 mg/kg/injection, schedule: Q04DX002 (ip), vehicle: saline with Tween-80): 104 % of control
- T/C (dose: 200.0 mg/kg/injection, schedule: Q04DX002 (ip), vehicle: saline with Tween-80): 109 % of control
- T/C (dose: 400.0 mg/kg/injection, schedule: Q04DX002 (ip), vehicle: saline with Tween-80): 114 % of control

SMILES: COc1ccc2c(c1OC)CN(C)CCc1cc3c(cc1C(=O)C2)OCO3
- T/C (dose: 18.75 mg/kg/injection, schedule: Q01DX009 (ip), vehicle: saline with Tween-80): 95 % of control
- T/C [1]: 95 % of control

SMILES: CS(=O)(=O)OCCC#N
- T/C (dose: 25.0 mg/kg/injection, schedule: Q01DX009 (ip), vehicle: saline): 113 % of control
- T/C [2]: 91 % of control and 104 % of control
- T/C [3]: 113 % of control
- T/C (dose: 100.0 mg/kg/injection, schedule: Q04DX003 (ip), vehicle: alcohol): 110 % of control
- T/C (dose: 150.0 mg/kg/injection, schedule: Q01DX009 (ip), vehicle: saline): 95 % of control

SMILES: COc1ccc2c(c1C)CCC1(C(=O)O)CC(C)C(O)CC21 (configuration not stated)
- T/C (dose: 50.0 mg/kg/injection, schedule: Q04DX003 (ip), vehicle: saline sonified): 95 % of control
- T/C [4]: 100 % of control
- T/C [5]: 100 % of control

SMILES: O=C1c2c(Cl)cccc2C(c2ccccc2)c2cccc(Cl)c21
- T/C [6]: 95 % of control
- T/C [7]: 104 % of control
- T/C [8]: 97 % of control

SMILES: COc1ccc(-c2oc3cc(O)c(OC)c(O)c3c(=O)c2OC)cc1O
- T/C (dose: 10.0 mg/kg/injection, schedule: Q01DX010 (ip), vehicle: saline): 100 % of control
- T/C (dose: 20.0 mg/kg/injection, schedule: Q01DX010 (ip), vehicle: saline): 100 % of control
- T/C (dose: 40.0 mg/kg/injection, schedule: Q01DX010 (ip), vehicle: saline): 113 % of control

SMILES: CC(C)(C)c1cc2c3c(c1)C(C)(C)OS3(C)OC2(C)C
- T/C (dose: 6.25 mg/kg/injection, schedule: Q04DX003 (ip), vehicle: saline with Tween-80): 102 % of control
- T/C (dose: 12.5 mg/kg/injection, schedule: Q04DX003 (ip), vehicle: saline with Tween-80): 100 % of control
- T/C (dose: 25.0 mg/kg/injection, schedule: Q04DX003 (ip), vehicle: saline with Tween-80): 92 % of control

SMILES: COC(=O)/C(C#N)=C\c1ccccc1
- T/C (dose: 50.0 mg/kg/injection, schedule: Q04DX003 (ip), vehicle: saline with Tween-80): 104 % of control
- T/C (dose: 100.0 mg/kg/injection, schedule: Q04DX003 (ip), vehicle: saline with Tween-80): 109 % of control

SMILES: O=NN(CCBr)C(=O)Nc1ccccc1
- T/C (dose: 4.0 mg/kg/injection, schedule: Q04DX003 (ip), vehicle: Klucel (hydroxypropylcellulose) (HPC)): 107 % of control
- T/C (dose: 6.5 mg/kg/injection, schedule: Q04DX003 (ip), vehicle: Klucel (hydroxypropylcellulose) (HPC)): 119 % of control
- T/C (dose: 11.0 mg/kg/injection, schedule: Q01DX009 (ip), vehicle: Klucel (hydroxypropylcellulose) (HPC)): 150 % of control and 158 % of control
- T/C (dose: 15.0 mg/kg/injection, schedule: Q04DX003 (ip), vehicle: Klucel (hydroxypropylcellulose) (HPC)): 162 % of control
- T/C (dose: 16.5 mg/kg/injection, schedule: Q01DX009 (ip), vehicle: Klucel (hydroxypropylcellulose) (HPC)): 166 % of control
- T/C (dose: 16.5 mg/kg/injection, schedule: Q01DX009 (ip), vehicle: saline with Tween-80): 185 % of control
- T/C (dose: 25.0 mg/kg/injection, schedule: Q01DX009 (ip), vehicle: Klucel (hydroxypropylcellulose) (HPC)): 195 % of control and 215 % of control
- T/C (dose: 25.0 mg/kg/injection, schedule: Q01DX009 (ip), vehicle: saline with Tween-80): 200 % of control
- T/C (dose: 29.0 mg/kg/injection, schedule: Q04DX003 (ip), vehicle: Klucel (hydroxypropylcellulose) (HPC)): 154 % of control and 168 % of control
- T/C (dose: 37.5 mg/kg/injection, schedule: Q01DX009 (ip), vehicle: Klucel (hydroxypropylcellulose) (HPC)): 220 % of control
- T/C [1]: 210 % of control
- T/C (dose: 44.0 mg/kg/injection, schedule: Q04DX003 (ip), vehicle: Klucel (hydroxypropylcellulose) (HPC)): 175 % of control and 181 % of control
- T/C (dose: 67.0 mg/kg/injection, schedule: Q04DX003 (ip), vehicle: Klucel (hydroxypropylcellulose) (HPC)): 167 % of control and 185 % of control and 204 % of control
- T/C [9]: 121 % of control and 211 % of control
- T/C (dose: 150.0 mg/kg/injection, schedule: Q04DX003 (ip), vehicle: Klucel (hydroxypropylcellulose) (HPC)): 175 % of control

SMILES: O=c1[nH]cnc2nc(Br)[nH]c12
- T/C [6]: 100 % of control
- T/C [7]: 101 % of control
- T/C [8]: 93 % of control
- T/C [10]: 101 % of control

SMILES: Cc1c(N)nc(=S)[nH]c1C(=O)O
- T/C (dose: 50.0 mg/kg/injection, schedule: Q04DX003 (ip), vehicle: Klucel (hydroxypropylcellulose) (HPC)): 113 % of control
- T/C (dose: 100.0 mg/kg/injection, schedule: Q01DX001 (ip), vehicle: Klucel (hydroxypropylcellulose) (HPC)): 109 % of control
- T/C [9]: 100 % of control
- T/C (dose: 200.0 mg/kg/injection, schedule: Q01DX001 (ip), vehicle: Klucel (hydroxypropylcellulose) (HPC)): 109 % of control
- T/C (dose: 200.0 mg/kg/injection, schedule: Q04DX003 (ip), vehicle: Klucel (hydroxypropylcellulose) (HPC)): 100 % of control
- T/C (dose: 400.0 mg/kg/injection, schedule: Q01DX001 (ip), vehicle: Klucel (hydroxypropylcellulose) (HPC)): 104 % of control

SMILES: CC(C)CCNc1ccc(NCCC(C)C)cc1
- T/C (dose: 2.34 mg/kg/injection, schedule: Q01DX009 (ip), vehicle: alcohol): 100 % of control
- T/C (dose: 4.68 mg/kg/injection, schedule: Q01DX009 (ip), vehicle: alcohol): 100 % of control
- T/C (dose: 9.37 mg/kg/injection, schedule: Q01DX009 (ip), vehicle: alcohol): 112 % of control
- T/C (dose: 13.75 mg/kg/injection, schedule: Q04DX003 (ip), vehicle: alcohol): 109 % of control
- T/C (dose: 18.75 mg/kg/injection, schedule: Q01DX009 (ip), vehicle: alcohol): 122 % of control
- T/C (dose: 27.5 mg/kg/injection, schedule: Q04DX003 (ip), vehicle: alcohol): 109 % of control

SMILES: CC(=O)OCc1ccc(-n2c(C(F)(F)F)nc3nc(Cl)c(Cl)nc32)o1
- T/C [2]: 100 % of control
- T/C (dose: 50.0 mg/kg/injection, schedule: Q04DX003 (ip), vehicle: saline): 108 % of control
- T/C [3]: 107 % of control
- T/C [11]: 103 % of control
- T/C [12]: 101 % of control
- T/C [13]: 100 % of control

SMILES: Nc1cccs1
- T/C (dose: 9.38 mg/kg/injection, schedule: Q01DX009 (ip), vehicle: other): 104 % of control
- T/C (dose: 18.75 mg/kg/injection, schedule: Q01DX009 (ip), vehicle: other): 100 % of control
- T/C (dose: 37.5 mg/kg/injection, schedule: Q01DX009 (ip), vehicle: other): 100 % of control
- T/C [6]: 98 % of control
- T/C (dose: 75.0 mg/kg/injection, schedule: Q01DX009 (ip), vehicle: other): 98 % of control
- T/C [7]: 116 % of control
- T/C (dose: 150.0 mg/kg/injection, schedule: Q01DX009 (ip), vehicle: other): 101 % of control
- T/C [8]: 114 % of control
- T/C [10]: 87 % of control

SMILES: CCOC(=O)CCN1CCCCC1
- T/C [3]: 96 % of control
- T/C [11]: 95 % of control
- T/C (dose: 200.0 mg/kg/injection, schedule: Q01DX009 (ip), vehicle: saline): 89 % of control
- T/C [12]: 109 % of control
- T/C (dose: 400.0 mg/kg/injection, schedule: Q01DX009 (ip), vehicle: saline): 107 % of control
- T/C [13]: 109 % of control

SMILES: c1ccc2c(NCCCCCCNc3c4ccccc4nc4ccccc34)c3ccccc3nc2c1
- T/C (dose: 0.31 mg/kg/injection, schedule: Q01DX009 (ip), vehicle: lactic acid): 110 % of control
- T/C (dose: 0.62 mg/kg/injection, schedule: Q01DX009 (ip), vehicle: lactic acid): 123 % of control
- T/C (dose: 1.25 mg/kg/injection, schedule: Q01DX009 (ip), vehicle: lactic acid): 163 % of control
- T/C (dose: 2.5 mg/kg/injection, schedule: Q01DX009 (ip), vehicle: lactic acid): 180 % of control
- T/C (dose: 5.0 mg/kg/injection, schedule: Q01DX009 (ip), vehicle: lactic acid): 178 % of control

SMILES: NC(C(=O)O)C(=O)c1ccccc1 (configuration not stated)
- T/C [4]: 100 % of control
- T/C [5]: 100 % of control
- T/C (dose: 400.0 mg/kg/injection, schedule: Q04DX003 (ip), vehicle: saline sonified): 100 % of control

SMILES: CC1=NNC(=O)C1
- T/C (dose: 100.0 mg/kg/injection, schedule: Q01DX001 (ip), vehicle: saline sonified): 100 % of control
- T/C (dose: 200.0 mg/kg/injection, schedule: Q01DX001 (ip), vehicle: saline sonified): 100 % of control
- T/C (dose: 400.0 mg/kg/injection, schedule: Q01DX001 (ip), vehicle: saline sonified): 105 % of control
